Experimental data taken from publication PMC7703437, “In Vitro Hepatic Metabolism of Curcumin Diethyl Disuccinate by Liver S9 from Different Animal Species” (Frontiers in Pharmacology, 2020).
Where “and” joins values, the source holds several entries; their conditions need not be identical. Identical values can stand only once.

Columns and labels:
Conditions in all cases: CDD 3 μM
HLS9 = assay: CDD depletion in HLS9 0.02 mg/ml (optimisation of incubation condition); format: in vitro ADME, human
Protocol: (§1) The metabolism profiles of CDD and curcumin formation profile were investigated against HLS9, MLS9, DLS9 and RLS9. A stock solution of CDD was prepared at 150 µM in 50% acetonitrile in water before use. The metabolism study was initiated by spiking a 588 µl pre-incubated LS9 with 12 µl CDD stock solution, and subsequently incubated at 37°C. The final concentrations of CDD and LS9 were 3 µM and 0.02 mg/ml, respectively. A 50 µl aliquot from the mixture was collected at 0.5, 1, 2, 3, 4, 5, 10, 15, 30, 45 and 60 min and was immediately mixed with 100 µl of ice-cold acetonitrile containing 0.45 µM of internal standard DMC to terminate the metabolic reaction. […] Samples of 120 µl of supernatant wee diluted with 40 µl of water prior to UHPLC analysis (Agilent series 1290, Agilent Technology, USA) by means of protocol outlined in Materials and Methods:“In vitro Metabolism Profiling of Curcumin Diethyl Disuccinate”. The sample at 0 min was prepared as other samples except that heat-inactivated HLS9, MLS9, DLS9 and RLS9 (80°C for 20 min; 1 mg/ml protein) were used. Duplicates were conducted for each experiment.
(§2) The peak area ratios of CDD and curcumin to internal standard in the supernatant were determined. The percent contents of CDD and curcumin were plotted against incubation time. The depletion of CDD was calculated with reference to the initial concentration. The saturated substrate was defined as % depletion less than 30.

MLS9 = assay: CDD depletion in MLS9 0.02 mg/ml (optimisation of incubation condition); format: in vitro ADME, monkey
Protocol: as §1, §2

RLS9 = assay: CDD depletion in RLS9 0.02 mg/ml (optimisation of incubation condition); format: in vitro ADME, rat
Protocol: as §1, §2

[1] = 1 min (selected incubation time)

With `CCOC(=O)CCC(=O)Oc1ccc(/C=C/C(=O)/C=C(O)/C=C/c2ccc(OC(=O)CCC(=O)OCC)c(OC)c2)cc1OC` [CDD, curcumin diethyl disuccinate] the “% CDD remaining” value (HLS9; 0.5 min) was 82.88%, the “%Depletion of CDD” value (HLS9; 0.5 min) was 17.12% and the “% CDD remaining” value (HLS9; 1 min) was 80.95%. The “%Depletion of CDD” value (HLS9; [1]) was 19% and 19.05%, the “% CDD remaining” value (HLS9; 2 min) was 68.18% and the “%Depletion of CDD” value (HLS9; 2 min) was 31.82%. The “% CDD remaining” value (HLS9; 3 min) was 57.46%, the “%Depletion of CDD” value (HLS9; 3 min) was 42.54% and the “% CDD remaining” value (HLS9; 4 min) was 43.15%. The “%Depletion of CDD” value (HLS9; 4 min) was 56.85%, the “% CDD remaining” value (HLS9; 5 min) was 36.37% and the “%Depletion of CDD” value (HLS9; 5 min) was 63.63%. For the same compound, the “% CDD remaining” value (MLS9; 0.5 min) was 75.32%, the “%Depletion of CDD” value (MLS9; 0.5 min (selected incubation time)) was 25% and 24.68% and the “% CDD remaining” value (MLS9; 1 min) was 63.90%. For the same compound, the “%Depletion of CDD” value (MLS9; 1 min) was 36.10%, the “% CDD remaining” value (MLS9; 2 min) was 49.34% and the “%Depletion of CDD” value (MLS9; 2 min) was 50.66%. For the same compound, the “% CDD remaining” value (MLS9; 3 min) was 37.51%, the “%Depletion of CDD” value (MLS9; 3 min) was 62.49% and the “% CDD remaining” value (MLS9; 4 min) was 28.36%. The “%Depletion of CDD” value (MLS9; 4 min) was 71.64%, the “% CDD remaining” value (MLS9; 5 min) was 21.92% and the “%Depletion of CDD” value (MLS9; 5 min) was 78.08%. For the same compound, the “% CDD remaining” value (RLS9; 0.5 min) was 82.81%, the “%Depletion of CDD” value (RLS9; 0.5 min) was 17.19% and the “% CDD remaining” value (RLS9; 1 min) was 78.14%. The “%Depletion of CDD” value (RLS9; [1]) was 22% and 21.86%, the “% CDD remaining” value (RLS9; 2 min) was 62.71% and the “%Depletion of CDD” value (RLS9; 2 min) was 37.29%. For the same compound, the “% CDD remaining” value (RLS9; 3 min) was 56.54%, the “%Depletion of CDD” value (RLS9; 3 min) was 43.46% and the “% CDD remaining” value (RLS9; 4 min) was 46.44%. For the same compound, the “%Depletion of CDD” value (RLS9; 4 min) was 53.56%, the “% CDD remaining” value (RLS9; 5 min) was 40.58% and the “%Depletion of CDD” value (RLS9; 5 min) was 59.42%.
